Consider one compound from PubChem BioAssay AID687027 (Broad Institute, 2013).

This assay relates to RMG-I TPO-Luc reporter, SteadyGlo luminescence, 24 h. The assay can be described thus: PAX8 transcriptional activity inhibition in RMG-I – RMG-I cells, luciferase, cherry-pick, dose response (AID 687027).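 Further: potency for lowering reporter light which is read as Pax8 inhibition.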

Each structure is given as a SMILES string.

In general, AC50 refers to the midpoint of the concentration-response curve, whichever way the signal moves. Turning to `COC(C(=O)C(O)C(C)O)C1Cc2cc3cc(OC4CC(OC5CC(O)C(O)C(C)O5)C(O)C(C)O4)c(C)c(O)c3c(O)c2C(=O)C1OC1CC(OC2CC(OC3CC(O)C(OC)C(C)O3)C(O)C(C)O2)C(O)C(C)O1` (stereo unspecified), the AC50 is under 0.26 µM.
